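Method: 48-hour compound exposure of cells in 96-well plates, five concentrations, linear interpolation of endpoints. At the GI50, growth is halved.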 Active and inactive are the calls of the source. Rule as the data show it: active = GI50 up to about 1.1 µM and inactive = higher. Where only a bound is given, the exact number is not on record here.

Among the test systems are DLD-1; DMS-273; KM-20L2; LXFL 529; SNB-78; XF498; M19-MEL; RXF 631; HOP-18.
What all share (test): growth of human tumour cells (NCI), 48 h

Take `CCOC(=O)C(C)(c1c(C)[nH]c2ccccc12)c1c(C)[nH]c2ccccc12`: the GI50 in the test on DLD-1 was 23.7 µM (inactive); in the test on DMS-273 it was 14.1 µM (inactive); in the test with KM-20L2 it was 16.4 µM (inactive); with LXFL 529 it was 51.4 µM (inactive); in the test with SNB-78, 17.5 µM (inactive); in the test on XF498 it was 21.8 µM (inactive).

With `N=C(N)NCCCC(Nc1c2ccccc2nc2ccccc12)C(=O)O` (stereo not drawn), the GI50 was > 100 µM (inactive) in the test on DLD-1; > 100 µM (inactive) with DMS-273; > 100 µM (inactive) in the test on KM-20L2; > 100 µM (inactive) in the test with LXFL 529; > 100 µM (inactive) in the test on M19-MEL; 75.3 µM (inactive) in the test on RXF 631.

On to `COC1(OC)C2(Cl)C(Cl)=C(Cl)C1(Cl)C1C2C2CC1(C(=O)O)c1ccccc12` (stereo not drawn), for which the GI50 in the test on DLD-1 is 17.8 µM (inactive); in the test on DMS-273, 19 µM (inactive); in the test on HOP-18 it was 41.2 µM (inactive); with KM-20L2, 24.2 µM (inactive); with LXFL 529 it was 14.6 µM (inactive); with M19-MEL, 18.9 µM (inactive). Besides, in the test with RXF 631, the GI50 was 22.4 µM (inactive).

Consider `COc1ccc(-c2cc(=O)c3c(OC)cccc3o2)c(OC)c1OC`, for which the GI50 is 95.1 µM (inactive) with DLD-1; > 100 µM (inactive) with DMS-273; > 100 µM (inactive) in the test on KM-20L2; 82.2 µM (inactive) in the test with LXFL 529; > 100 µM (inactive) in the test on M19-MEL; > 100 µM (inactive) with SNB-78.

`CCSC1(SCC)CCN(/C=N/C(C)(C)C)C1`: the GI50 with DLD-1 is 62.4 µM (inactive); in the test with DMS-273, > 100 µM (inactive); in the test on HOP-18, > 100 µM (inactive); with KM-20L2, > 100 µM (inactive); in the test with LXFL 529, > 100 µM (inactive); in the test with M19-MEL it was > 100 µM (inactive). In addition, the GI50 in the test with RXF 631, with SNB-78 and in the test with XF498 was > 100 µM (inactive) throughout.

Regarding `CCCC12Cc3c(OC)ccc(OC)c3CC(Cc3c(OC)ccc(OC)c31)C2=O` (stereo not drawn), the GI50 in the test on DLD-1 is > 100 µM (inactive); in the test on DMS-273 it was > 100 µM (inactive); in the test with LXFL 529 it was 10.2 µM (inactive); in the test on M19-MEL, > 100 µM (inactive); in the test on SNB-78, > 100 µM (inactive).

For `CC(C)CC(=O)NS(=O)(=O)c1ccccc1`, the GI50 with DLD-1, in the test with HOP-18, with KM-20L2, in the test with LXFL 529, in the test on M19-MEL and with RXF 631 was > 100 µM (inactive) throughout. Besides, the GI50 with SNB-78 and with XF498 was > 100 µM (inactive) throughout.

`Cc1cc2c(=O)cc(-c3cccs3)oc2c(C(=O)O)c1C`: the GI50 is > 100 µM (inactive) with DLD-1; > 100 µM (inactive) in the test on DMS-273; > 100 µM (inactive) in the test with KM-20L2; 49.4 µM (inactive) in the test with LXFL 529; > 100 µM (inactive) in the test with M19-MEL.

Turning to `COc1ccc2c(c1OC)C1=C(C2=O)c2cc3c(cc2CCN1)OCO3`, the GI50 with DLD-1 was 42.4 µM (inactive); in the test with DMS-273 it was 24.2 µM (inactive); in the test on HOP-18 it was 52.5 µM (inactive); in the test with KM-20L2 it was 17.9 µM (inactive); with LXFL 529, 33.1 µM (inactive); in the test on M19-MEL, 42.1 µM (inactive). The GI50 in the test with SNB-78 is 89.7 µM (inactive); in the test with XF498, 40.3 µM (inactive).

Take `CC(C)(C)C1=CC(=N/N=c2\scc(-c3ccccc3)n2-c2ccccc2)C=C(C(C)(C)C)C1=O`: the GI50 in the test with DLD-1, in the test on DMS-273, in the test with HOP-18, in the test with KM-20L2, in the test with LXFL 529 and in the test with M19-MEL was > 100 µM (inactive) in each case. The GI50 with SNB-78 and in the test with XF498 was > 100 µM (inactive) in each case.

As to `COC12OCCN(C)C1=CC(=O)C1(C)N=NCC12` (stereo not drawn), the GI50 in the test with DLD-1, in the test with DMS-273, with HOP-18, with LXFL 529, in the test on M19-MEL and in the test on SNB-78 was > 100 µM (inactive) throughout.

Consider `C=C1c2[nH]c3c([N+](=O)[O-])c(OC)ccc3c2CCN1C(C)=O`, for which the GI50 with DLD-1 was 22.1 µM (inactive); in the test on DMS-273 it was > 100 µM (inactive); in the test on KM-20L2, > 100 µM (inactive); with LXFL 529 it was > 100 µM (inactive); in the test with SNB-78, > 100 µM (inactive).

Regarding `CC1(C)CC(Nc2ccc(Nc3ccccc3)cc2)CC(C)(C)N1`, the GI50 is 70.5 µM (inactive) in the test on DLD-1; 41.7 µM (inactive) in the test with DMS-273; > 100 µM (inactive) in the test with HOP-18; 26.1 µM (inactive) in the test with KM-20L2; 25.1 µM (inactive) in the test with LXFL 529; 35.2 µM (inactive) in the test with M19-MEL. The GI50 in the test with RXF 631 is 18.6 µM (inactive); with SNB-78 it was 66.2 µM (inactive); in the test with XF498, 22.5 µM (inactive).

Consider `Cc1ccc(N(C(=O)CC(=O)N2N=C(c3ccccc3)C(/N=N/c3ccc([N+](=O)[O-])cc3)C2=O)C(=O)c2ccc(Cl)cc2)cc1` (stereo not drawn), for which the GI50 is 21.2 µM (inactive) in the test on DLD-1; 5.94 µM (inactive) in the test on DMS-273; 27.4 µM (inactive) in the test with HOP-18; 23.3 µM (inactive) with KM-20L2; 15.5 µM (inactive) with LXFL 529; 26 µM (inactive) in the test with M19-MEL. For the same compound, the GI50 was 6.95 µM (inactive) in the test with SNB-78 and 21.8 µM (inactive) in the test on XF498.

Take `CC(O[Si](C)(C)C)C1C=CC(C)n2c(=O)n(-c3ccccc3)c(=O)n21` (stereo not drawn): the GI50 in the test with DLD-1, in the test with HOP-18, in the test with M19-MEL and with SNB-78 was > 100 µM (inactive) in each case.

In the case of `CCCCc1c2c(nc3c1CCc1cc4cc5c(nc4nc1-3)-c1nc3c(c(CCCC)c1CC5)CCCC3)CCCC2`, the GI50 in the test with DLD-1 is 59.8 µM (inactive); in the test with DMS-273 it was 42.2 µM (inactive); in the test on KM-20L2, 22.8 µM (inactive); with LXFL 529, 18 µM (inactive); in the test with M19-MEL, 54 µM (inactive); in the test with SNB-78, > 100 µM (inactive).

As to `CCOc1cc[n+]([C-](C#N)C#N)cc1`, the GI50 in the test with DLD-1, with DMS-273, in the test on KM-20L2, in the test with LXFL 529, in the test with M19-MEL and with RXF 631 was > 100 µM (inactive) in each case. For the same compound, the GI50 with SNB-78 and in the test on XF498 was > 100 µM (inactive) each time.

In the case of `COc1ccc(C2=NN(C(=O)COc3ccc(Cl)cc3)C(O)(c3ccc(Cl)cc3)C2)cc1` (stereo not drawn), the GI50 with DLD-1 is > 100 µM (inactive); with DMS-273, > 100 µM (inactive); in the test on KM-20L2, > 100 µM (inactive); in the test on LXFL 529 it was > 100 µM (inactive); in the test on RXF 631 it was > 100 µM (inactive); in the test with SNB-78 it was 66.5 µM (inactive). The GI50 in the test with XF498 is > 100 µM (inactive).

`COc1ccc(/C=N/Nc2nc(-c3cc4oc(=O)n(C)c4cc3Cl)cs2)cc1OC`: the GI50 in the test on DLD-1 was 10.7 µM (inactive); with DMS-273, 11.9 µM (inactive); in the test on HOP-18 it was > 100 µM (inactive); in the test on KM-20L2 it was 15.7 µM (inactive); in the test on LXFL 529, 15.3 µM (inactive); in the test with M19-MEL it was 7.8 µM (inactive). In addition, the figures for the GI50 in the test on RXF 631, in the test on SNB-78 and with XF498 were 21 µM (inactive), 37.2 µM (inactive) and 10.7 µM (inactive), respectively.

In the case of `O=C(NNc1ccccc1)/C(=C/c1ccc2c(c1)OCO2)NC(=O)c1ccccc1`, the GI50 in the test with DLD-1, with DMS-273, in the test on HOP-18, with KM-20L2, in the test with LXFL 529 and with SNB-78 was > 100 µM (inactive) throughout. The GI50 with XF498 is > 100 µM (inactive).

Regarding `O=C1Cc2c([nH]c3ccccc23)-c2ccccc2N1` [PAULLONE], the GI50 in the test with DLD-1 is 33.3 µM (inactive); in the test on DMS-273, 31.1 µM (inactive); in the test with HOP-18, > 100 µM (inactive); in the test on KM-20L2 it was 21.4 µM (inactive); with LXFL 529, 19.1 µM (inactive); in the test on M19-MEL, 53.1 µM (inactive). Besides, the GI50 with SNB-78 is > 100 µM (inactive); with XF498, 31.6 µM (inactive).

On to `O=C1C(c2cnc3ccccc3n2)=C(O)c2ccccc21`, for which the GI50 with DMS-273 is 0.281 µM (active); in the test with KM-20L2 it was > 100 µM (inactive); with LXFL 529, > 100 µM (inactive); in the test with M19-MEL, > 100 µM (inactive); in the test on RXF 631 it was > 100 µM (inactive); in the test with SNB-78, > 100 µM (inactive).

Consider `Cc1ccc(S(=O)(=O)N/N=C(/CC(=O)c2c(C)[n+]([O-])c3ccccc3[n+]2[O-])C(=O)Nc2ccccc2C)cc1`, for which the GI50 with DLD-1, in the test with DMS-273, in the test with HOP-18, in the test on KM-20L2, with LXFL 529 and in the test on M19-MEL was > 100 µM (inactive) throughout. Moreover, the GI50 in the test with SNB-78 is > 100 µM (inactive).
